Molecular target: T1, Cdk2(2-298) (Homo sapiens, UniProt P24941)
T1 construct: Biotinylated N-terminal avi-tagged Cdk2(2-298) or Cdk1(1-297) was immobilized
Assay: Surface Plasmon Resonance (SPR) compound interaction, Biacore 8K
Format: binding
Details: single-cycle kinetics (SCK, "S"), dissociation 1800 sec, read-out: Activity rating (KD)
How it was run: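 Biotinylated N-terminal avi-tagged Cdk2(2-298) captured on streptavidin chip at 2500–3000 RU in 25 mM HEPES, 150 mM NaCl, 0.05% Tween20, pH 7.5, 1% DMSO final. Eight 3-fold compound concentrations injected 120 sec at 30 μl/min, multi- or single-cycle kinetics; dissociation 180 sec (MCK) or 1800 sec (SCK).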

Structure (SMILES) | Kd [nM]
N[C@H]1CC[C@H](Nc2nccc(-c3cncnc3Oc3ccc(NS(=O)(=O)c4ccccc4Cl)cc3F)n2)CC1 [Compound 128, N-[4-[5-[2-[(1r,4r)(4-aminocyclohexyl)amino]pyrimidin-4-yl]pyrimidin-4-yl]oxy-3-fluorophenyl] 2-chlorobenzenesulfonamide] | ≤ 10
O=S(=O)(Nc1ccc(Oc2ncncc2-c2ccnc(N[C@H]3CCCNC3)n2)c(F)c1)c1ccccc1 [Compound 129, N-[3-fluoro-4-[5-[2-[[(3S)-3-piperidyl]amino]pyrimidin-4-yl]pyrimidin-4-yl]oxy-phenyl] benzenesulfonamide] | 100 to 1000
N[C@H]1CC[C@H](Nc2nccc(-c3cncnc3Oc3ccc(NS(=O)(=O)c4ccccc4)cc3F)n2)CC1 [Compound 130, N-[4-[5-[2-[(1r,4r)(4-aminocyclohexyl)amino]pyrimidin-4-yl]pyrimidin-4-yl]oxy-3-fluoro-phenyl] benzenesulfonamide] | 1000 to 5000
N[C@H]1CC[C@H](Nc2nccc(-c3ccncc3Oc3ccc(NS(=O)(=O)c4ccccc4Cl)cc3F)n2)CC1 [Compound 131, N-[4-(1r,4r)[[4-[2-[(4-aminocyclohexyl)amino]pyrimidin-4-yl]-3-pyridyl]oxy]-3-fluorophenyl] 2-chlorobenzenesulfonamide] | 11 to 100
N[C@H]1CC[C@H](Nc2nccc(-c3ncccc3Oc3ccc(NS(=O)(=O)c4ccccc4Cl)cc3F)n2)CC1 [Compound 132, N-[4-[[2-[2-(1r,4r)[(4-Aminocyclohexyl)amino]pyrimidin-4-yl]-3-pyridyl]oxy]-3-fluoro-phenyl] 2-chlorobenzenesulfonamide] | 100 to 1000
